Measurements taken from US20160002204A1 (Board of Regents, The University of Texas System, priority 2014, published 2016).

Tests used:
[1] = biological target: T1, GLS1 (purified recombinant human GAC) (Homo sapiens, UniProt O94925); assay: GLS1 enzymatic activity assay (dual-coupled, Amplex UltraRed/resorufin); format: biochemical
T1 sequence (O94925 55-598 isoform O94925-3 limits assumed): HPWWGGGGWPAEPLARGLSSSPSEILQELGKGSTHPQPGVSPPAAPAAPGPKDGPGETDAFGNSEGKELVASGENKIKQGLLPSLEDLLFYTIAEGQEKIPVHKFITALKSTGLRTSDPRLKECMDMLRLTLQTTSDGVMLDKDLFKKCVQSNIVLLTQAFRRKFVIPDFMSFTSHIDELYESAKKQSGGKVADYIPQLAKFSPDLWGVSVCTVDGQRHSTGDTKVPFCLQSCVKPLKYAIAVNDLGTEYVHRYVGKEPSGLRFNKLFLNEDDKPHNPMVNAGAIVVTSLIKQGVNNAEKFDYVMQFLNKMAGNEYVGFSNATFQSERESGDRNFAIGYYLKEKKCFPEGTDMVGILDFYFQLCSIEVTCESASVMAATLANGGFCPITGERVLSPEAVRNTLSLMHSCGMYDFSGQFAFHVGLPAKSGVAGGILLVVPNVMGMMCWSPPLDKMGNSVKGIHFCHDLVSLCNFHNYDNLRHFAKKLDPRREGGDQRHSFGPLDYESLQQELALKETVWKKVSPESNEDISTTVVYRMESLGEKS
How it was run: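 In this coupled fluorometric format, phosphate-activated GAC (2 nM, 50 mM phosphate) is pre-exposed to compound for 10 min before 1 mM glutamine addition. Product is tracked as resorufin (530/590 nm) over time or at 20 min, and potency is derived by logistic fitting.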

A549 cells = assay: A549 proliferation (viability) assay, Cell Titer Fluor, 72 hours; format: cell-based; conditions: Homo sapiens
How it was run: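 A549 cells seeded at 1000 cells/well, left 24 h, then exposed to compound for 72 h at 37 °C, 5% CO2, final DMSO 0.5% (v/v). Viability read by Cell Titer Fluor fluorescence; EC50 from four-parameter logistic fit.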

| Structure (SMILES) | IC50 [1] [nM] | EC50 (A549 cells) [nM] |
| --- | --- | --- |
| Cc1ccc(CNC(=O)c2cn(CC(F)CCn3ccc(NC(=O)OC4CCC4)nc3=O)nn2)cn1 (stereo not drawn) [Example 413, cyclobutyl N-{1-[3-fluoro-4-(4-{[(6-methylpyridin-3-yl)methyl]carbamoyl}-1H-1,2,3-triazol-1-yl)butyl]-2-oxo-1,2-dihydropyrimidin-4-yl}carbamate] | 100 to 500 | 500 to 5000 |
| O=C(CN1CC2CC(C2)C1)Nc1ccn(CCC(F)Cn2cc(C(=O)NCc3cc(C(F)(F)F)ccn3)nn2)c(=O)c1F (stereo not drawn) [Example 415, 1-{4-[4-(2-{3-azabicyclo[3.1.1]heptan-3-yl}acetamido)-3-fluoro-2-oxo-1,2-dihydropyridin-1-yl]-2-fluorobutyl}-N-{[4-(trifluoromethyl)pyridin-2-yl]methyl}-1H-1,2,3-triazole-4-carboxamide] | < 100 | < 100 |
| O=C(Nc1ccn(CCC(F)Cn2cc(C(=O)NCc3cccc(OC(F)(F)F)c3)nn2)c(=O)c1F)C(=O)N1CCOCC1 (stereo not drawn) [Example 417, 1-(2-fluoro-4-{3-fluoro-4-[2-(morpholin-4-yl)-2-oxoacetamido]-2-oxo-1,2-dihydropyridin-1-yl}butyl)-N-{[3-(trifluoromethoxy)phenyl]methyl}-1H-1,2,3-triazole-4-carboxamide] | 100 to 500 | 500 to 5000 |
| O=C(Nc1ccn(CCC(F)Cn2cc(C(=O)NCc3cccc(OC(F)(F)F)c3)nn2)c(=O)c1F)C(=O)N1CCCC(C(F)(F)F)C1 (stereo not drawn) [Example 419, 1-[2-fluoro-4-(3-fluoro-2-oxo-4-{2-oxo-2-[3-(trifluoromethyl)piperidin-1-yl]acetamido}-1,2-dihydropyridin-1-yl)butyl]-N-{[3-(trifluoromethoxy)phenyl]methyl}-1H-1,2,3-triazole-4-carboxamide] | < 100 | < 100 |
| N#CC1CCCN(C(=O)C(=O)Nc2ccn(CCC(F)Cn3cc(C(=O)NCc4cccc(OC(F)(F)F)c4)nn3)c(=O)c2F)C1 (stereo not drawn) [Example 420, 1-(4-{4-[2-(3-cyanopiperidin-1-yl)-2-oxoacetamido]-3-fluoro-2-oxo-1,2-dihydropyridin-1-yl}-2-fluorobutyl)-N-{[3-(trifluoromethoxy)phenyl]methyl}-1H-1,2,3-triazole-4-carboxamide] | < 100 | 500 to 5000 |

More lines, now with the values ahead:

| IC50 [1] [nM] | EC50 (A549 cells) [nM] | Structure (SMILES) |
| --- | --- | --- |
| 100 to 500 | 500 to 5000 | Cc1ccc(CNC(=O)c2cn(CC(F)CCn3ccc(NC(=O)C(=O)N4CCCCC4)c(F)c3=O)nn2)cn1 (stereo not drawn) [Example 412, 1-(2-fluoro-4-{3-fluoro-2-oxo-4-[2-oxo-2-(piperidin-1-yl)acetamido]-1,2-dihydropyridin-1-yl}butyl)-N-[(6-methylpyridin-3-yl)methyl]-1H-1,2,3-triazole-4-carboxamide] |
| < 100 | 500 to 5000 | O=C(NCc1cccc(OC(F)(F)F)c1)c1cn(CC(F)CCn2ccc(COc3ccccc3)cc2=O)nn1 (stereo not drawn) [Example 414, 1-(2-fluoro-4-(2-oxo-4-(phenoxymethyl)pyridin-1(2H)-yl)butyl)-N-(3-(trifluoromethoxy)benzyl)-1H-1,2,3-triazole-4-carboxamide] |
| < 100 | < 100 | O=C(CN1CCC(F)(F)CC1)Nc1ccn(CCC(F)Cn2cc(C(=O)NCc3cc(C(F)(F)F)ccn3)nn2)c(=O)c1F (stereo not drawn) [Example 416, 1-(4-{4-[2-(4,4-difluoropiperidin-1-yl)acetamido]-3-fluoro-2-oxo-1,2-dihydropyridin-1-yl}-2-fluorobutyl)-N-{[4-(trifluoromethyl)pyridin-2-yl]methyl}-1H-1,2,3-triazole-4-carboxamide] |
| < 100 | < 100 | CC1CCCN(C(=O)C(=O)Nc2ccn(CCC(F)Cn3cc(C(=O)NCc4cccc(OC(F)(F)F)c4)nn3)c(=O)c2F)C1 (stereo not drawn) [Example 418, 1-(2-fluoro-4-{3-fluoro-4-[2-(3-methylpiperidin-1-yl)-2-oxoacetamido]-2-oxo-1,2-dihydropyridin-1-yl}butyl)-N-{[3-(trifluoromethoxy)phenyl]methyl}-1H-1,2,3-triazole-4-carboxamide] |
